“Also recorded” adds a separate entry of the source.
Assays:
[1] = system: NOS2-expressing Calu-6 cells; experiment: Tumor xenoplantation of NOS2-expressing Calu-6 cells in athymic nude mice; format: in vivo; conditions: 1% AG; p53 null Calu-6 cells, subcutaneous tumors; p<0.05, two-tailed Student's t-test
Excerpt: (§1) FIG. 2a-d: Tumor probability of NOS2-expressing human carcinoma cells lines is dependent on the p53 status. 3×10^6 cells of NOS2-expressing Calu-6 and LoVo carcinoma cells, and the vector controls (BaglacZ), were inoculated into 10 athymic nude mice, respectively. NOS2-expressing LoVo cells, which have two wild-type p53 alleles, grow slower (A) and produce smaller tumors (C) than vector controls (BaglacZ). In contrast, NOS2-expressing Calu-6 cells, which lack expression of functional p53, grow faster (B) and produce larger tumors (D) than the vector controls.
(§2) A. Methods Tumor xenoplantation: Suspensions of 3×10^5 to 5×10^6 cells in a volume of 0.2 ml were injected at a single subcutaneous site into athymic nude mice previously irradiated with 350 rads. Either 10 or 20 animals were injected per experiment. A nodule was scored as a tumor when it measured 125 mm^3 or more by its largest two dimensions.
(§3) Statistical Analysis: The Kaplan-Meier survival analysis was used to calculate the statistical significance of tumor probabilities in different treatment groups. Other comparisons were carried out by the two-tailed Student's t-test. Relationships are considered statistically significant when p<0.05.

[2] = system: NOS2-expressing HT-29 colon carcinoma cells; experiment: Tumor xenoplantation of NOS2-expressing HT-29 colon carcinoma cells in athymic nude mice; format: in vivo; conditions: 1% AG in the drinking water; mutant p53 HT-29 cells; Kaplan-Meier analysis p=0.002
Description: 3×10^5 cells of NOS2 (Retro-HNOS) and β-galactosidase (BaglacZ) expressing HT-29 cells were inoculated into 40 athymic nude mice, respectively. Half of the animals in both groups received 1% AG in the drinking water. […] This effect is abolished (p=0.002) through treatment with 1% AG.
as §2, §3

[3] = system: NOS2-expressing LoVo cells; experiment: Tumor xenoplantation of NOS2-expressing LoVo cells in athymic nude mice; format: in vivo; conditions: wild-type p53 LoVo cells, slow-growing tumors
Excerpt: as §1, §2, §3

[4] = system: VEGF secretion of NOS2-expressing Calu-6 cells; experiment: VEGF secretion into culture medium of NOS2-expressing Calu-6 cell clones (immunoprecipitation, western blot); format: cell-based, human; conditions: 2 mM L-NMA, 48 hr, 3×10^6 cells in 4 ml of medium
Description: FIG. 7a-b: VEGF protein concentrations are higher (4.3 and 7.1-fold) in the culture medium of NOS2-expressing Calu-6 cells clones than in the culture medium of vector controls (A) and correlate with increased VEGF mRNA expression (B). […] 3×10^6 cells were cultured in 4 ml of medium for 48 hr±2 mM L-NMA. VEGF was immunoprecipitated out of 1 ml of culture medium. The 4.4 kb VEGF mRNA was detected by northern blotting was a 522 bp ^32P-labeled cDNA (exon 1-7), and the 7.5 kb polycistronic mRNA encoding NOS2 with the full-length human NOS2 cDNA (Geller et al., Proc. Natl. Acad. Sci. U.S.A. 90:3491-3495 (1993); Tzeng et al., Proc. Nat'l Acad. Sci USA 92:11771-11775 (1995)).
NOS2 and VEGF western blot analysis: Cell lysates for western blotting were prepared by solubilization of cell pellets in RIPA butter. VEGF protein concentrations were determined as follows. Five μg of rabbit polyclonal anti-VEGF antibody (Santa Cruz Biotechnology) were added to either 1 mg of cellular protein extract or 1 ml of cell culture medium, incubated for 1 hr at 8-10° C., and then mixed with protein A-sepharose (10 mg) for 1 hr. […] After transfer to an Immunobilon-P membrane (Millipore), NOS2 and VEGF protein were detected with either a polyclonal anti-NOS2 antibody (Merck), 1:40,000 diluted, or a polyclonal anti-VEGF, 1:1000 diluted, as described (Ambs et al., Cancer Res. 58:334-341 (1998)).

Row | Structure (SMILES) | tumor growth of NOS2-expressing Calu-6 cells [1] | tumor probability / tumor growth of NOS2-expressing HT-29 cells [2] | tumor growth of NOS2-expressing LoVo cells [3] | VEGF secretion into the culture medium [4]
1 | N=C(N)NN [aminoguanidine] | significantly reduced the tumor growth; also recorded: inhibited; also recorded: suppressed the tumor growth | significantly reduced the tumor growth; also recorded: reverses the growth stimulatory effect of NOS2 | lack of an aminoguanidine effect | –
2 | CNC(=N)NCCC[C@H](N)C(=O)O [L-NMA, NG-monomethyl-L-arginine] | – | – | – | reduced the VEGF secretion; also recorded: decreases VEGF secretion

Reference: US20070056049A1, “p53 and VEGF regulate tumor growth of NOS2 expressing cancer cells” (The Govt. of the USA as represented by the Secretary of the …, priority 1998, published 2007)
